Values quoted from earlier work as cited in US20070014883A1, “Method for treating osteoarthritis” (priority 2005, published 2007).
Entries after “also recorded” stand apart in the source; their conditions may differ.

Tests used:
MMP-2 = target: T1, MMP-2 (Homo sapiens, UniProt P08253); details: for Inhibitory activity against MMP-2, potency relative to captopril: more potent than captopril; for Inhibition of MMP-2: reference 24
T1 sequence (P08253 110-660): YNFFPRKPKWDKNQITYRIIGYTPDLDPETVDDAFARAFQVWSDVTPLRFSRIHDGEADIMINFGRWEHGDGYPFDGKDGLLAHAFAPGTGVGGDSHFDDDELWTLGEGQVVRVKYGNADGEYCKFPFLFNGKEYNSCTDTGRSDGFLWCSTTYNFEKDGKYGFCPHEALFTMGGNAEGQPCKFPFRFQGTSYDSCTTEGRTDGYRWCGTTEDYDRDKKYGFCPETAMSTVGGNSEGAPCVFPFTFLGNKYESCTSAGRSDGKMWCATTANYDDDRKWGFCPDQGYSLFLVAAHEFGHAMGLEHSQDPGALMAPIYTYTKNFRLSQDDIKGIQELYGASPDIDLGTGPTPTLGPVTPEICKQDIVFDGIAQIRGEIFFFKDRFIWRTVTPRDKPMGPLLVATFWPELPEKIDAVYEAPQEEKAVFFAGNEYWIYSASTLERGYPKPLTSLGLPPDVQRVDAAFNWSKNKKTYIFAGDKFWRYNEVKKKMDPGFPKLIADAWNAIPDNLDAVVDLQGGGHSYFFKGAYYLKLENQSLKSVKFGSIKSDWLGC

MMP-9 = MMP-9 (Homo sapiens, UniProt P14780); details: for Inhibitory activity against MMP-9, potency relative to captopril: more potent than captopril; for Inhibition of MMP-9: reference 24
MMP-1 = target: T2, MMP-1 (Homo sapiens, UniProt P03956); details: reference 24
T2 sequence (P03956 100-469): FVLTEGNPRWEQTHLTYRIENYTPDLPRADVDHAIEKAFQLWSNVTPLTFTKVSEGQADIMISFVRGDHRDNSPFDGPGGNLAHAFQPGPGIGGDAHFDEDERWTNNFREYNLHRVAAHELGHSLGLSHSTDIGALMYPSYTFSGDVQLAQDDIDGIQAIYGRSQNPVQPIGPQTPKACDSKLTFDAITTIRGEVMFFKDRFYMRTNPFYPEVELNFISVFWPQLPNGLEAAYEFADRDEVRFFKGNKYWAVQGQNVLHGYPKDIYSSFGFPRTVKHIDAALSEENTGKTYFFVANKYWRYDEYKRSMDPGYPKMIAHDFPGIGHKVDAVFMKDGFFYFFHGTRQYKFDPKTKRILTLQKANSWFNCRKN

Sequence of MMP-9 (P14780 94-707, species assumed): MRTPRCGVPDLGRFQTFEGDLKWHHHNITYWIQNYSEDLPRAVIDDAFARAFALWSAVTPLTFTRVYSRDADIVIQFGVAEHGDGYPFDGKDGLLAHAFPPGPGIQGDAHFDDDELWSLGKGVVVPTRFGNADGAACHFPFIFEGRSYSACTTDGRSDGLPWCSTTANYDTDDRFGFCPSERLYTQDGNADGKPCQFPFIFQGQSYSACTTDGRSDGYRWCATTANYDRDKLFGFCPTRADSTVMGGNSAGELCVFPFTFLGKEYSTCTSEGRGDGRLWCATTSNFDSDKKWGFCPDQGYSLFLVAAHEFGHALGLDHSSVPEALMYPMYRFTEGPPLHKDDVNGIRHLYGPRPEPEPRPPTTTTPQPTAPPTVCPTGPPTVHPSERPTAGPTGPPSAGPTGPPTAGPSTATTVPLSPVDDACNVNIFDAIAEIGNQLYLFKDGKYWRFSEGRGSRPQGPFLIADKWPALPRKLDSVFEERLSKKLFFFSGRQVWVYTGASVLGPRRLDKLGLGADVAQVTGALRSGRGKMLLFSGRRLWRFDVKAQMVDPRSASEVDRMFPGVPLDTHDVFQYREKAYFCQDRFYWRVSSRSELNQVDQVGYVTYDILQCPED

Row | Inhibitory activity against MMP-2, potency relative to captopril (MMP-2) | Inhibitory activity against MMP-9, potency relative to captopril (MMP-9) | Compound | Inhibition of MMP-2 (MMP-2) | Inhibition of MMP-9 (MMP-9) | Inhibition of MMP-1 (MMP-1)
1 | 100 fold | 100 fold | O=C1CCC(Cc2ccc(O)c(O)c2)O1 (stereo not shown) [M1, δ-(3,4-dihydroxy-phenyl)-γ-valerolactone] | strong inhibitory activity; also recorded: more potent than the parent molecules | strong inhibitory activity; also recorded: more potent than the parent molecules | strong inhibitory activity; also recorded: more potent than the parent molecules
2 | 100 fold | 100 fold | COc1cc(CC2CCC(=O)O2)ccc1O (stereo not shown) [M2, δ-(3-methoxy-4-hydroxyphenyl)-γ-valerolactone] | strong inhibitory activity; also recorded: more potent than the parent molecules | strong inhibitory activity; also recorded: more potent than the parent molecules | strong inhibitory activity; also recorded: more potent than the parent molecules
